What is called IC50 is the concentration at which inhibition is half-maximal. Higher therefore signals weaker potency. By melting point is commonly meant the temperature, or range, at which the solid turns liquid.

The source of these data is PMC11414077, “Novel thiazole-based cyanoacrylamide derivatives: DNA cleavage, DNA/BSA binding properties and their anticancer behaviour against colon and breast cancer cells” (BMC Chemistry, 2024).

The subject of one data set is CT-DNA. Nature of the data set: CT-DNA UV-Visible absorption spectrophotometric titration. The class given is binding, calf. As to conditions: compound 25 μM, CT-DNA 0–60 μM; peak 423 nm (3b), 359 nm (3c). As for the experimental part:
CT-DNA stock solution was prepared by dissolving CT-DNA in Tris/NaCl buffer (pH 7.1). Then, it was stored at 4°C and was manipulated within 4 days of preparation. The concentration was estimated by applying the equation C=A260nm/ε×b where C is the concentration of DNA solution, A is the absorbance at wavelength 260 nm, b is the path length and ε is the molar extinction coefficient of DNA that equals 6600 M^−1 cm^−1. The purity also was calculated using the absorbance ratio at wavelength 260 and 280 respectively, which was 1.8 indicating free DNA from protein contamination. Stock solutions of compounds 3b and 3c were prepared by dissolving in DMSO.
The interaction between the selected compounds (3b and 3c) and CT-DNA was assessed through the spectrophotometric titration method. In brief, a fixed concentration of compounds (25 μM) was mixed with an accumulative addition of CT-DNA (0–60 μM) at room temperature with a constant DMSO percentage of 5%. After 5 min from each addition, the UV–Vis absorption spectrum (250–650 nm) was recorded. The hyper/hypochromic percentage change at the characteristic peak of 3b and 3c was assessed using the formula: H%=Afree-Abound/Abound×100 . […] Standard Gibbs free energy (ΔG°) was calculated using the equation ΔG° = − RTlnKb (where T is the temperature, 298 K; R is the universal gas constant, 8.314 J K^−1 mol^−1).

A further data set concerns CT-DNA-EtBr. Nature of the data set: Ethidium bromide quenching (displacement) assay. To be noted: for kq / KSV: CT-DNA-EtBr; for kq: τ0 10^−8 s; for reduction in fluorescence intensity: EtBr 20 µM, CT-DNA 100 µM, 3b 0–160 µM, 3c 0–80 µM; for KSV: Stern–Volmer, room temperature. The class given is binding, calf. The method, then:
EtBr is a conventional intercalator whose fluorescence intensity intensifies in response to CT-DNA interaction. Solution of CT-DNA-EtBr with final concentrations of EtBr (20 µM) and CT-DNA (100 µM) in Tris–HCl buffer solution (pH = 7.1) was prepared, then compounds were solubilized in DMSO, added to the prepared solution to attain a range of concentration (0–160 µM) and (0–80 µM) for 3b and 3c, respectively. Then, the mixtures were incubated 3 min after each addition and the emission spectra (540–710 nm) were recorded using an excitation wavelength of 520 nm.
The interaction mode between compound and CT-DNA can be discriminated through fluorescence spectroscopy with the EtBr–CT-DNA system. EtBr is a classic indicator of intercalation where an intense fluorescence signal is emitted from the EtBr-CT-DNA system through intercalation of EtBr between adjacent DNA base pairs with no obvious signal for unaccompanied EtBr. […] The Stern–Volmer equation was used for the study of the effect of quenchers on the CT-DNA-EtBr system. F0/F= 1+KsvQ= 1+kqτ0[Q] where F0 and F are fluorescence intensities in the absence and presence of the compound used for quenching, respectively; KSV is a linear Stern–Volmer quenching constant; [Q] is the concentration of the quenching compound and τ0 is the fluorescence lifetime of the fluorophore (10^−8 s) in absence of the compound responsible for quenching. KSV for 3b and 3c is computed from the linear regression plot of F0/F against [Q]. Also, the binding constant (Kb) and the number of binding sites (n) were determined by the Scatchard method.
log((F0-F)/F)=logKb+nlog[Q]
Kb has been assigned as the intercept and n as the slope in the linear plotting of log((F0–F)/F) versus log[Q]. The detailed results for 3b and 3c were computed and depicted in Table 1.

The target of data set [1] is T1, BSA (Bos taurus, UniProt P02769).
T1 construct: purchased BioBasic Inc. (Canada)
Put plainly: BSA UV-Visible absorption spectrophotometric titration. The data set is classed as binding, bovine. To be noted: at 277 nm, BSA 15 μM, compound 0–40 μM. As for the experimental part:
BSA was dissolved in Tris/NaCl buffer (pH 7.1) to prepare the BSA stock solution, which was then kept at 4°C and utilized within a week after preparation. The concentration was evaluated by applying the equation C=A280nm/ε×b where C is the concentration of protein solution, A is the absorbance at wavelength 280 nm, b is the path length and ε is molar extinction coefficient of protein that equals 44,300 M^−1 cm^−1.
The interaction was evaluated through dilution of BSA to 15 μM in Tris/NaCl (pH 7.1) during the spectrophotometric titration. After that, the compounds dissolved in DMSO were added with a range of increasing concentration (0–40 μM), where the final DMSO percentage is 5%. UV–Vis absorption spectrum measurement for each concentration was assessed by Shimadzu UV-3101 PC NIR spectrophotometer after 3 min of each addition. The Kb for compounds 3b and 3c was calculated using equation [54]: 1/Aobs-A0=1/Ac-A0+1/KbAc-A0[compound] where A0, Aobs and Ac are absorbance of solution in the absence, various concentrations, and saturation of the compound at the characteristic peak, respectively. Where Kb is estimated from the plot of 1/Aobs-A0 versus 1/[Drug] .

The target of data set [2] is T1, BSA. Put plainly: Tryptophan quenching assay with BSA. As to conditions: for kq / n (binding site numbers) / Kb: BSA; for n (binding site numbers) / Kb: Scatchard method; for Kb / KSV: room temperature; for KSV: Stern–Volmer, BSA 15 µM, λex 289 nm. The class given is binding, bovine. As for the experimental part:
BSA (15 µM) solution was prepared in Tris/HCl buffer solution (pH = 7.1) and mixed with serial concentrations of compounds 3b and 3c (0–40 µM), achieving 5% final concentration of DMSO. Following 3 min incubation after each addition, fluorescence quenching spectra were recorded from 300 to 450 nm using a spectrofluorometer with an excitation wavelength of 289 nm.
Fluorescence investigations could be used to conduct a specified analysis of whether synthetic molecules bind to biomolecules as BSA. It is widely perceived that predominantly tryptophan (Trp) is responsible for the inherited fluorescence among the other two amino acids [tyrosine (Tyr) and phenylalanine (Phe)] in the BSA [88]. The tryptophan emission spectrum is frequently altered because of protein conformational variation, subunit interactions, substrate binding, or denaturation. Reduced fluorescence emission intensity is observed for 3b and 3c, which may be due to disrupted BSA structure altering the tryptophan microenvironments. Moreover, the internalization of fluorophore residues into the protein's hydrophobic core is due to protein folding or related to the hydrophobic amino acid residues around Trp, such as Leu, Tyr, and phe. […] Also, a linear plot of F0/F against the concentration of 3b and 3c was used for computing the values of KSV (9.0 × 10^4 and 9.9 × 10^4 M^−1) and kq (9.0 × 10^12 and 9.9 × 10^12 M^−1 s^−1) for the titled compounds (3b and 3c, respectively). […] The negative values of ΔG also supported the UV–Vis results of free energy changes and implied the spontaneity of 3b/3c–BSA binding, where the interaction parameters were illustrated in Table 2.

A further data set concerns HCT116 cells. Nature of the data set: MTT cell viability assay, HCT116. The data set is classed as cell-based. As to conditions: Homo sapiens, HCT-116; HCT116, absence of illumination (dark). The method, then: (§1) The cytotoxicity of 3b and 3c against MDA-MB-231 and HCT116 cell lines, with and without illumination, was assessed using the MTT test. Two human cancer cell lines, including MDA-MB-231 and HCT116 cell lines, were purchased from the National Research Centre, Dokki, Cairo, Egypt. Briefly, 96-well plates were seeded with cells (5 × 10^3 cells/well) and left overnight. The compounds dissolved in DMSO were then applied to the cells following the serial dilution procedure in the range of 0–100 µM. The cells were then incubated for an additional 20 h. Subsequently, the cells were exposed to UV light for 20 min at a distance of 10 cm. To study the effects of the illumination, a control plate was created under the same circumstances but without illumination. The two plates were incubated for a further 20 h. After that, PBS was used to wash the cells and MTT solution (0.5 mg/ml) was added. To dissolve the generated formazan crystals, the solution was replaced with 100 µl of DMSO per well after 4 h of incubation. An ELISA reader operating at 492 nm was used to measure the absorbance after 15 min of plate shaking. By relating the absorbance of treated and negative control cells, the relative cell viability was calculated. GraphPad Prism software was used to calculate the half inhibitory concentration (IC50). Doxorubicin (0–100 μM) was utilized as a positive cytotoxicity control in the usual dark environment, while the vehicle (DMSO, 0.1%) was used as a negative control.
In general terms: Formazan colour is commonly taken as a measure of viable cells.

Another data set deals with MDA-MB-231 cells. Nature of the data set: MTT cell viability assay, MDA-MB-231. The class given is cell-based. To be noted: Homo sapiens; MDA-MB-231, dark conditions. As for the experimental part:
as §1

T1 sequence (P02769 25-607): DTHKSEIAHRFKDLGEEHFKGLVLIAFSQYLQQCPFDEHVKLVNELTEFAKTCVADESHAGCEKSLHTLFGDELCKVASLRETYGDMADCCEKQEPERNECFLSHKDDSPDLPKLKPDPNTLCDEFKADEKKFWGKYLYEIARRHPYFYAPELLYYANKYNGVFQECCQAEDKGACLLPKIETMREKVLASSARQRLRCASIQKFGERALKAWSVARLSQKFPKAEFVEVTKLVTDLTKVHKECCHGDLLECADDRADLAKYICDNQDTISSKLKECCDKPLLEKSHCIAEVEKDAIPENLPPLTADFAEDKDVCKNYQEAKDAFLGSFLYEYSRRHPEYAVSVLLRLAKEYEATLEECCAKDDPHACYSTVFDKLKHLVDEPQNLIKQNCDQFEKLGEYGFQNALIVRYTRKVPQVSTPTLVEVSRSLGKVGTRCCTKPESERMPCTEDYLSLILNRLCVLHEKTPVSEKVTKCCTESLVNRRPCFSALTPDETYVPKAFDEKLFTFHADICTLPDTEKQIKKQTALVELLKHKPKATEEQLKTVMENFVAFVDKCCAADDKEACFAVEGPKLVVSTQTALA

`N#CC(=Cc1cn(-c2ccccc2)nc1-c1cccs1)C(=O)Nc1nccs1` [Compound 3b, 2-Cyano-3-(1-phenyl-3-(thiophen-2-yl)-1H-pyrazol-4-yl)-N-(thiazol-2-yl)acrylamide] registered a melting point of 252 to 256 °C. In the data set on CT-DNA, the hypochromism was ~ 14%. In addition, in the data set with CT-DNA-EtBr, the kq is 2.9e+11 M⁻¹ s⁻¹, the “reduction in fluorescence intensity” value is ~ 33.3% and the KSV was found to be 2900 M⁻¹. Further, the hyperchromicity at BSA [1] is listed as ~ 52.2%. Further, on BSA [2], the kq came to 9e+12 M⁻¹ s⁻¹, the “n (binding site numbers)” value came out at 1.3, the Kb came out at 30 M⁻¹ and the KSV was determined as 90000 M⁻¹. The same molecule returned an IC50 with HCT116 cells of 72 µM. The same molecule showed an IC50 with MDA-MB-231 cells of 91 µM.
As for `N#CC(=Cc1cn(-c2ccccc2)nc1-c1cccnc1)C(=O)Nc1nccs1` [Compound 3c, 2-Cyano-3-(1-phenyl-3-(pyridin-3-yl)-1H-pyrazol-4-yl)-N-(thiazol-2-yl)acrylamide], the melting point was in the range of 250 to 252 °C. Also, the hypochromism in the data set with CT-DNA is ~ 40%. In the data set with CT-DNA-EtBr, the kq was 5.6e+11 M⁻¹ s⁻¹, the “reduction in fluorescence intensity” value is reported as ~ 30.7% and the KSV was determined as 5600 M⁻¹. Moreover, the hyperchromicity on BSA [1] is on record as ~ 48.2%. On BSA [2], the kq is 9.9e+12 M⁻¹ s⁻¹, the “n (binding site numbers)” value stood at 1.3, the Kb came out at 34 M⁻¹ and the KSV is 99000 M⁻¹. In addition, in the data set on HCT116 cells, the IC50 turned out to be 82 µM. Also, the midpoint of inhibition with MDA-MB-231 cells, the IC50, lay at 64 µM.
With `Cc1ccc(-c2nn(-c3ccccc3)cc2C=C(C#N)C(=O)Nc2nccs2)cc1` [Compound 3d, 2-Cyano-3-(1-phenyl-3-(p-tolyl)-1H-pyrazol-4-yl)-N-(thiazol-2-yl)acrylamide], the melting point is 255 to 257 °C.
The same measure, in the same setting: to `N#CC(=Cc1cn(-c2ccccc2)nc1-c1ccc(Cl)cc1)C(=O)Nc1nccs1` [Compound 3f, 3-(3-(4-Chlorophenyl)-1-phenyl-1H-pyrazol-4-yl)-2-cyano-N-(thiazol-2-yl)acrylamide] belongs 270 to 272 °C.
Turning to `COc1cccc2c1C(=O)c1c(O)c3c(c(O)c1C2=O)C[C@@](O)(C(=O)CO)C[C@@H]3O[C@H]1C[C@H](N)[C@H](O)[C@H](C)O1` [doxorubicin, reference compound], the IC50 with HCT116 cells turned out to be 40 µM; in the data set with MDA-MB-231 cells, 64.8 µM.
